Measured values from ChEMBL document CHEMBL4476877, “Treatment of COPD, gastro-esophageal reflux disease (GERD), food allergies and other gastrointestinal conditions and disorders ameliorated by proper histamine management using a combination of histidine decarboxylase inhibitors, LRA drugs, anti-H1 and/or anti-H2 drugs” (2012).
The source made the active and inactive calls. No cut-off for these calls is given here.

What was measured:
Homo sapiens [1] = species: Homo sapiens; test: Improvement in disease symptoms in patient with COPD assessed as TEV level at 200 mg/day co-treated with 10 mg/day Loratadine and measured after 10 months by spirometry (reference value: 0.4 L/secs); format: functional
Homo sapiens [2] = test: Improvement in disease symptoms in GERD patient assessed as improvement in disease symptoms at 200 mg dosed daily co-treated with 10 mg anti-H1 drug loratadine dosed daily and 150 mg anti-H2 drug Ranitidine dosed daily; format: functional
Homo sapiens [3] = species: Homo sapiens; test: Improvement in disease symptoms in patient with COPD assessed as increase in TEV level at 200 mg/day co-treated with 10 mg/day Loratadine and measured after 10 months by spirometry relative to untreated control; format: functional
Homo sapiens [4] = species: Homo sapiens; test: Improvement in disease symptoms in patient with COPD assessed as TEV level at 200 mg/day co-treated with 10 mg/day Loratadine and measured after 6 months by spirometry (reference value: 1.2 L/secs); format: functional
Homo sapiens [5] = species: Homo sapiens; test: Improvement in disease symptoms in patient with COPD assessed as TEV level at 200 mg/day co-treated with 10 mg/day Loratadine and measured after 6 weeks by spirometry (reference value: 1.8 L/secs); format: functional
Homo sapiens [6] = species: Homo sapiens; test: Improvement in disease symptoms in patient with COPD assessed as TEV level at 200 mg/day co-treated with 10 mg/day Loratadine and measured after 6 weeks by spirometry (reference value: 1.4 L/secs); format: functional
Homo sapiens [7] = species: Homo sapiens; test: Improvement in disease symptoms in patient with COPD assessed as TEV level at 200 mg/day co-treated with 10 mg/day Loratadine and measured after 12 months by spirometry (reference value: 1.8 L/secs); format: functional
Homo sapiens [8] = species: Homo sapiens; test: Improvement in disease symptoms in patient with COPD assessed as TEV level at 200 mg/day co-treated with 10 mg/day Loratadine and measured after 8 months by spirometry (reference value: 1.4 L/secs); format: functional
Homo sapiens [9] = species: Homo sapiens; test: Improvement in disease symptoms in patient with COPD assessed as TEV level at 200 mg/day co-treated with 10 mg/day Loratadine and measured after 6 weeks by spirometry relative to control; format: functional
Homo sapiens [10] = species: Homo sapiens; test: Improvement in disease symptoms in patient with COPD assessed as TEV level at 200 mg/day co-treated with 10 mg/day Loratadine and measured after 12 months by spirometry (reference value: 1.5 L/secs); format: functional
Homo sapiens [11] = species: Homo sapiens; test: Improvement in disease symptoms in patient with COPD assessed as TEV level at 200 mg/day co-treated with 10 mg/day Loratadine and measured after 6 months by spirometry (reference value: 1.5 L/secs); format: functional
Homo sapiens [12] = species: Homo sapiens; test: Improvement in disease symptoms in patient with COPD assessed as TEV level at 200 mg/day co-treated with 10 mg/day Loratadine and measured after 6 weeks by spirometry (reference value: 1.5 L/secs); format: functional
Homo sapiens [13] = species: Homo sapiens; test: Improvement in disease symptoms in patient with COPD assessed as TEV level at 200 mg/day co-treated with 10 mg/day Loratadine and measured after 6 months by spirometry (reference value: 1.4 L/secs); format: functional
Homo sapiens [14] = species: Homo sapiens; test: Improvement in disease symptoms in patient with COPD assessed as increase in TEV level at 200 mg/day co-treated with 10 mg/day Loratadine and measured after 8 months by spirometry relative to untreated control; format: functional
Homo sapiens [15] = species: Homo sapiens; test: Improvement in disease symptoms in patient with COPD assessed as TEV level at 200 mg/day co-treated with 10 mg/day Loratadine and measured after 6 weeks by spirometry (reference value: 1.2 L/secs); format: functional
Homo sapiens [16] = species: Homo sapiens; test: Improvement in disease symptoms in patient with COPD assessed as TEV level at 200 mg/day co-treated with 10 mg/day Loratadine and measured after 6 months by spirometry (reference value: 0.4 L/secs); format: functional
Homo sapiens [17] = species: Homo sapiens; test: Improvement in disease symptoms in patient with COPD assessed as TEV level at 200 mg/day co-treated with 10 mg/day Loratadine and measured after 6 weeks by spirometry (reference value: 0.4 L/secs); format: functional
Homo sapiens [18] = species: Homo sapiens; test: Improvement in disease symptoms in patient with COPD assessed as TEV level at 200 mg/day co-treated with 10 mg/day Loratadine and measured after 6 months by spirometry (reference value: 1.8 L/secs); format: functional
Homo sapiens [19] = test: Improvement in disease symptoms in GERD patient assessed as improvement in disease symptoms at 200 mg dosed daily co-treated with 10 mg anti-H1 drug loratadine dosed daily relative to control; format: functional
Homo sapiens [20] = test: Improvement in disease symptoms in GERD patient assessed as reduction in regurgitation at 150 mg dosed daily; format: functional, organism-based
Homo sapiens [21] = test: Improvement in disease symptoms in GERD patient assessed as improvement in global disease scores at 150 mg dosed daily; format: functional, organism-based
Homo sapiens [22] = test: Improvement in disease symptoms in GERD patient assessed as reduction in cough at 150 mg dosed daily; format: functional, organism-based
Homo sapiens [23] = test: Improvement in disease symptoms in GERD patient assessed as reduction in heartburns at 150 mg dosed daily; format: functional, organism-based

Compound `CCOc1c(N)c2c(c(OCC)c1OCC)C(C1c3c(cc4c(c3OC)OCO4)CCN1C)OC2=O` (stereo not drawn) [TRITOQUALINE] has an Activity (Homo sapiens [1]) of 0.9 L/s, an Activity (Homo sapiens [2]) of 209.5% and an Activity (Homo sapiens [3]) of 125%. The Activity (Homo sapiens [4]) was 1.9 L/s, the Activity (Homo sapiens [5]) was 2.1 L/s and the Activity (Homo sapiens [6]) was 1.7 L/s. It also gave an Activity (Homo sapiens [7]) of 2.6 L/s, an Activity (Homo sapiens [8]) of 2.4 L/s and an Activity (Homo sapiens [9]) of 71.4%. The Activity (Homo sapiens [10]) was 2 L/s, the Activity (Homo sapiens [11]) was 1.9 L/s and the Activity (Homo sapiens [12]) was 1.7 L/s. For the same compound, the Activity (Homo sapiens [13]) was 2.1 L/s, the Activity (Homo sapiens [14]) was 71.4% and the Activity (Homo sapiens [15]) was 1.8 L/s. The Activity (Homo sapiens [16]) was 0.8 L/s, the Activity (Homo sapiens [17]) was 0.6 L/s and the Activity (Homo sapiens [18]) was 2.1 L/s. For the same compound, the Activity (Homo sapiens [19]) was 82.9%.

For `CNC(=C[N+](=O)[O-])NCCSCc1ccc(CN(C)C)o1`, the Activity (Homo sapiens [20]) was “inactive”, the Activity (Homo sapiens [21]) was “inactive” and the Activity (Homo sapiens [22]) was “inactive”. For the same compound, the Activity (Homo sapiens [23]) was “inactive”.
